Entries after “also recorded” stand apart in the source; their conditions may differ. Strand notation (5' to 3'): a small letter for the sugar, then the base; units joined by * are phosphorothioate-linked, units joined directly phosphodiester-linked; [ ] holds rarer units or linkages, { } end groups; capitals alone tell only the bases. d = 2'-deoxy (DNA)
Columns and labels:
Type in all cases: in vivo, rat
rats with SNI = assay: Mechanical allodynia in rats with spared nerve injury (SNI); settings: single dose of 6 mg/kg seven days after SNI, s.c.
From the text: In twenty-six rats anesthetized with Isoflurane (5% induction, 2.5% maintenance, 0.8 L/min O2 flow rate; Piramal Healthcare, UK), the right sciatic nerve and its three distal branches were exposed by blunt dissection, and the tibial and common peronneal branches completely sectioned and ligated to prevent regeneration. The third branch, the sural nerve, was left intact. The animals received one single injection of ketoprofen for post-surgical pain control and were left to recover from anesthesia in a warm and quiet environment before relocating them in their corresponding cages.
Rats were administered subcutaneously using the LT protocol (FIG. 4A) and a single dose of 6 mg/kg of IMT504. This was followed by pain-like behavior testing for up to six weeks after SNI.
Naïve (uninjured and untreated; n=16), CFA injured untreated (n=10), and vehicle-treated CFA (n=9) or SNI rats (n=10) were used as controls. Eight naïve rats remained untreated, four were vehicle-treated, and four received a daily dose of 20 mg/kg IMT504 for five consecutive days. Untreated CFA rats received an intradermal hind paw injection of CFA and no further treatment. Vehicle-treated CFA rats received five daily subcutaneous injections of saline (200 μl), starting seven days after injury. Vehicle-treated SNI rats received one single dose of saline (200 ul), starting seven days after injury. […]

[1] = system: rats with postsurgical pain (plantar incision); assay: Naloxone challenge in IMT504-pre-treated rats with plantar incision, mechanical withdrawal threshold
Procedure: In all experiments, the oligodeoxynucleotide (ODN) IMT504, with sequence 5′-[sequence]-3′ (SEQ ID No 1) was used. The HPLC-grade phosphorothioate ODN (Biosynthesis Inc., Lewisville, Tex., USA) was suspended in sterile saline solution (VEH, 0.9% NaCl; 20 mg/ml; storage concentration) and assayed for LPS contamination. Working concentration doses (6 mg/kg) were obtained by additional dissolving in sterile VEH. The ODN was administered subcutaneously, at a final volume of 200-300 μl, depending on animal weight.
A group of rats also received an intraperitoneal (i.p.) injection of naloxone hydrochloride (Narxona 0.4 mg/ml; Scott-Cassara, Bs. As., Argentina), at a dose of 2 mg/kg, in order to test if the effect of IMT504 could be blocked by the pan-opioid receptor antagonist.
The rat hind paw plantar incision model of postoperative pain was used as previously described [Brennan, T. J., E. P. Vandermeulen, and G. F. Gebhart, Characterization of a rat model of incisional pain. […] Briefly, rats were anesthetized using isoflurane (5% induction, 2.5% maintenance, 0.8 l/min O2 flow rate; Piramal Healthcare, UK) and the plantar aspect of the right hind paw was disinfected with povidone iodine. A 1.0-cm longitudinal incision was made 0.5 cm from the end of the heel. The underlying flexor muscle was also incised longitudinally, allowing the muscle origin and insertion to remain intact. After hemostasis by gentle pressure, the skin was closed with sutures of 5-0 nylon.
Rats were divided into injured rats receiving IMT504 (6 mg/kg, dissolved in VEH) or VEH alone, 48h and 24 h prior to surgery. […]
Mechanical withdrawal thresholds were assessed by using von Frey nylon monofilaments of different bending forces (1.4, 2, 6, 8, 10, 15 and 26 g; Stoelting Inc., Wooddale, USA) and the modified up-down method of Dixon, as described by Chaplan and cols. (Chaplan, S. R., et al., Quantitative assessment of tactile allodynia in the rat paw. J Neurosci Methods, 1994. 53(1): p. 55-63) , to establish the 50% withdrawal threshold. […]

[2] = system: rats with hind paw inflammation (CFA rats); assay: Cold allodynia (acetone drop) in rats with CFA-induced hind paw inflammation
Procedure: (§1) In fifty-two rats anesthetized with Isoflurane (5% induction, 2.5% maintenance, 0.8 L/min O2 flow rate; Piramal Healthcare, UK), the right hind paw was injected intra-dermally with 100 μl of CFA (1:1, dissolved in normal saline; Sigma-Aldrich, Mo., USA), using a 1 ml syringe with a 25G needle attached. The animals (from now on, called CFA rats) were left to recover from anesthesia in a warm and quiet environment before relocating them in their corresponding cages.
In one set of experiments, called “preventive treatment”, four rats received a daily dose of 20 mg/kg IMT504 for five consecutive days and four weeks later one dose of 6 mg/kg (group a); a second group of four rats received one dose of 6mg/kg of IMT504 (group b) (FIG. 1A). Three days after the single injection of 6 mg/kg IMT504, all eight rats received intra-plantar CFA, after which they were tested for mechanical and cold allodynia during 21 days. At day 28, group b received an additional administration of IMT504 at a dose of 3 mg/kg and was evaluated until day 35.
For cold allodynia assessment, the reaction to the application of a drop of acetone onto the plantar surface of the hind paw was used. Both frequency of withdrawal and cold score (pain-like behavior intensity) were measured. […]

[3] = system: rats with hind paw inflammation (CFA rats); assay: Hind paw dorsoventral thickness in rats with CFA-induced hind paw inflammation; settings: preventive IMT504 before CFA; whole tested period
Procedure: as §1
In one set of experiments, called “preventive treatment”, four rats received a daily dose of 20 mg/kg IMT504 for five consecutive days and four weeks later one dose of 6 mg/kg (group a); a second group of four rats received one dose of 6mg/kg of IMT504 (group b) (FIG. 1A). Three days after the single injection of 6 mg/kg IMT504, all eight rats received intra-plantar CFA, after which they were tested for mechanical and cold allodynia during 21 days. At day 28, group b received an additional administration of IMT504 at a dose of 3 mg/kg and was evaluated until day 35. […]
Eight rats received a dose of 6 mg/kg IMT504 (FIGS. 2 and 3). […] On day 28 (FIG. 1) or 28 (FIG. 2), rats receiving preventive IMT504 were administered additional IMT504 at a dose of 3 mg/kg (FIG. 1) or 2 mg/kg (FIG. 2), and assessed until days 21-35.

[4] = system: rats with post-incisional pain; assay: Cold allodynia in rats with post-incisional pain (plantar incision); settings: 6 mg/kg s.c. 48 h and 24 h before incision; particularly apparent 3 days after injury
From the text: In twenty-four rats anesthetized with Isoflurane (5% induction, 2.5% maintenance, 0.8 L/min O2 flow rate; Scott-Cassara, Argentina), the right hind paw plantar skin was cleaned and disinfected. This was followed by a 1-cm longitudinal incision distal to heel and extending towards the toes, as previously described (Xu J, et al., 2011, 24(5): 508-514). The incision involved both plantar skin and fascia. This was followed by identification and longitudinal incision of plantar […] muscle, leaving its insertions intact. After achieving homeostasica, skin was sutured using a 5-0 nylon suture, protected with an antibacterial cream and the animal was returned to its retention cage, under observation, until full recovery from anesthesia.
Rats were subcutaneously administered 6 mg/kg of IMT504, 48 and 24 h before implementing the post-incisional pain model. This was followed by pain-like behavior testing for up to 21 days after injury.
For cold allodynia assessment, the reaction to the application of a drop of acetone onto the plantar surface of the hind paw was used, as previously described. Frequency of withdrawal to cold stimuli was measured.

[5] = 6 mg/kg 3 days before CFA (FIG. 7)
[6] = 6 mg/kg 3 days before CFA, booster 3 mg/kg day 28
[7] = 20 mg/kg daily x5 plus single 6 mg/kg three days before CFA

In the case of “IMT504: synthetic phosphorothioate oligodeoxynucleotide with sequence 5′-TCATCATTTTGTCATTTTGTCATT-3′ (SEQ ID No 1) (DNA dT*dC*dA*dT*dC*dA*dT*dT*dT*dT*dG*dT*dC*dA*dT*dT*dT*dT*dG*dT*dC*dA*dT*dT)”, the “full recovery of mechanical withdrawal thresholds” value (rats with SNI) is reported as “fully recovered from week three and onwards”, the “time from which mechanical withdrawal thresholds are almost at basal levels” value (rats with SNI) is reported as 12 days after injury and the “anti-allodynic effect of IMT504 under systemic non-selective opioid receptor antagonist” value ([1]; naloxone 2 mg/kg i.p. at day 3 after injury (FIG. 18)) is reported as “temporarily blocked”. For the same substance, the “mechanical allodynia on day 3 after injury” value ([1]; two doses of pre-emptive IMT504 (6 mg/kg, 48 h and 24 h before surgery)) was “completely abolished”, the “period after induction of inflammation during which IMT504 prevents cold allodynia” value [2, 5] was 1 days and the “time of reaching cold allodynic levels comparable to vehicle-treated rats” value [2, 5] was 7 days after injury. The “effect of an additional dose of 3 mg/kg IMT504 28 days after injury on cold allodynia” value [2, 6] was “full anti-allodynic effect; also recorded: complete reduction in mechanical and cold allodynia”, the “time at which the anti-allodynic effect (cold) of the reinforcement dose is lost” value [2, 6] was 35 days after injury and the “progression of cold allodynia” value [2, 7] was “very slow increase in cold withdrawal frequency; also recorded: slow progression towards cold allodynia”. The “time of peak of cold allodynia” value [2, 7] was 21 days after injury, the “frequency of cold allodynia” value ([2]; both preventive groups, twenty days after injury) was 60% and the “time of peak of cold allodynia” value ([2]; single dose of 6 mg/kg only, three days before CFA) was 21 days after injury. For the same substance, the “protection against cold allodynia” value ([2]; single dose of 6 mg/kg only, three days before CFA, 6 mg/kg) was “more moderate anti-allodynic effect; also recorded: milder protection against cold allodynia”, the “cold allodynia vs injured vehicle-treated rats, days 1 and 3 after injury” value ([2]; single preventive dose of 6 mg/kg (FIG. 11B)) was “significantly lower than that observed in injured vehicle-treated rats” and the “cold allodynia vs vehicle-treated rats, from day 7 on” value ([2]; single preventive dose of 6 mg/kg (FIG. 11B), differences not statistically significant) was “always showed lower levels of cold allodynia than vehicle-treated rats”. For the same substance, the “effect on hind paw inflammation (dorsoventral paw thickness)” value [3] was “does not prevent occurrence of inflammation; also recorded: did not seem to alter the natural course of hind paw inflammation; also recorded: without altering the inflammatory state of the affected hind paw” and the “cold allodynia after plantar incision” value [4] was “significant reduction in cold allodynia”.
